Results: patent US8323669B2, “Polymer conjugate of taxane” (priority 2006, dated 2012)

Legend:
Assay type in all cases: in vivo, mouse (female CDF1 mice)
[1] = test system: Mouse colon cancer, Colon26; assay: Antitumor effect of compound 4 (Test Example 5); conditions: single i.v. at maximum tolerance dose (compound 4 200 mg/kg as DTX, DTX 100 mg/kg)
Protocol: Mouse colon cancer, Colon26, maintained by serial subcutaneous subculture in mice was minced into about 2-mm square fragments, and these fragments were subcutaneously transplanted on the dorsal part of female CDF1 mice with a trocar. Seven days after tumor transplantation, the polymer conjugate of the present invention (compound 4) or the control drug (docetaxel, DTX) was intravenously administered once to the mouse tail vein at the maximum tolerance dose. The compound 4 was dissolved in a 5% glucose solution for injection at a level for the use at a dose of 200 mg/kg as DTX. DTX to be used was prepared by dissolving a commercially available Taxotere injection (for the use at a dose of 100 mg/kg use) with a vehicle solution attached to the product and diluting it with physiological saline at the time of use. After the administration, the major axis (L mm) and minor axis (W mm) of the tumor were measured using a caliper, and the tumor volume was calculated by the formula: (L×W^2)/2.

[2] = test system: Mouse colon cancer, Colon26; assay: Antitumor effect of compounds 2 and 3 (Test Example 4); conditions: single i.v. at maximum tolerance dose (conjugates 200 mg/kg as DTX, DTX 100 mg/kg)
Source text: Mouse colon cancer, Colon26, maintained by serial subcutaneous subculture in mice was minced into about 2-mm square fragments, and the fragments were subcutaneously transplanted on the dorsal part of female CDF1 mice with a trocar. Seven days after tumor transplantation, the polymer conjugates of the present invention (compound 2 and compound 3) and the control drug (docetaxel, DTX) were each intravenously administered once to the mouse tail vein at the respective maximum tolerance dose. The compound 2 and compound 3 were dissolved in 5% glucose solution for injection to a level for the use at a dose of 200 mg/kg as DTX. DTX to be used was prepared by dissolving a commercially available Taxotere injection (for 100 mg/kg use) in a vehicle solution attached to the product, and diluting it with physiological saline at the time of use. After the administration, the major axis (L mm) and minor axis (W mm) of the tumor were measured using a caliper, and the tumor volume was calculated by the formula: (L×W^2)/2.

[3] = test system: Mouse colon cancer, Colon26; assay: Antitumor effect of compound 1 (Test Example 3); conditions: i.v. three times (Day 0, 4, 8), 200 mg/kg as PTX
Protocol: Mouse colon cancer, Colon26, maintained by serial subcutaneous subculture in mice was minced into about 2-mm square fragments, and the fragments were subcutaneously transplanted on the dorsal part of female CDF1 mice with a trocar. Seven days after tumor transplantation, the polymer conjugate of the present invention (compound 1) or the control drug (paclitaxel, PTX) was administered intravenously to the mouse tail vein three times at an interval of 4 days (Day 0, Day 4 and Day 8 in Table 1) at a dose of 200 mg/kg as PTX. The compound 1 was dissolved in a 5% glucose solution for injection and used. PTX was dissolved in anhydrous ethanol and cremophor (manufactured by Sigma Co., Ltd) and diluted with physiological saline at the time of use. After the administration, the major axis (L mm) and minor axis (W mm) of the tumor were measured using a caliper, and the volume of the tumor was calculated by the formula: (L×W^2)/2.

| SMILES | relative tumor volume ([1]; Day 0 after administration) | relative tumor volume ([1]; Day 3 after administration) | relative tumor volume ([1]; Day 5 after administration) | relative tumor volume ([1]; Day 7 after administration) | relative tumor volume ([1]; Day 10 after administration) | relative tumor volume ([2]; Day 0 after administration) | relative tumor volume ([2]; Day 2 after administration) | relative tumor volume ([2]; Day 4 after administration) | relative tumor volume ([2]; Day 7 after administration) | relative tumor volume ([2]; Day 10 after administration) | relative tumor volume ([3]; Day 0 after administration initiation) | relative tumor volume ([3]; Day 4 after administration initiation) | relative tumor volume ([3]; Day 8 after administration initiation) | relative tumor volume ([3]; Day 11 after administration initiation) |
| --- | --- | --- | --- | --- | --- | --- | --- | --- | --- | --- | --- | --- | --- | --- |
| CC(=O)O[C@@]12CO[C@@H]1C[C@H](O)[C@@]1(C)C(=O)[C@H](O)C3=C(C)[C@@H](OC(=O)[C@H](O)[C@@H](NC(=O)OC(C)(C)C)c4ccccc4)C[C@@](O)([C@@H](OC(=O)c4ccccc4)[C@H]21)C3(C)C [DTX, docetaxel] | 1.00 | 1.17 | 1.17 | 2.17 | 5.75 | 1.00 | 1.61 | 1.57 | 2.30 | 5.85 | – | – | – | – |
| CC(=O)O[C@H]1C(=O)[C@@]2(C)[C@H]([C@H](OC(=O)c3ccccc3)[C@]3(O)C[C@H](OC(=O)[C@H](O)[C@@H](NC(=O)c4ccccc4)c4ccccc4)C(C)=C1C3(C)C)[C@]1(OC(C)=O)CO[C@@H]1C[C@@H]2O [Paclitaxel, paclitaxel] | – | – | – | – | – | – | – | – | – | – | 1 | 3.28 | 4.75 | 4.07 |
